Reference: patent US5462935A, “Cephalosporin compounds” (Lucky Limited, priority 1990, dated 1995)
In brackets after ≈: the same amount, converted by molar mass.

What was measured:
[1] = system: Pseudomonas aeruginosa ATCC 25619; experiment: minimal inhibitory concentration, two-fold agar dilution; assay type: cell-based; conditions: ATCC25619, Muller-Hinton agar, 37° C., 20 hours
Protocol: (§1) These NIC values were taken by employing a two-fold dilution method: that is, two-fold serial dilutions of each of the test compounds were made and dispersed in a Muller-Hinton agar medium; 2 μl of the standard test strain which had the 10^7 CFU (Colony Forming Unit) per ml was inoculated on the medium; and these were incubated at 37° C. for 20 hours.

[2] = system: Acinetobacter calcoaceticus ATCC 15473; experiment: as above; assay type: cell-based; conditions: ATCC15473, Muller-Hinton agar, 37° C., 20 hours
Protocol: as §1

[3] = system: Enterobacter aerogenes ATCC 29751; experiment: as above; assay type: cell-based; conditions: Klebsiella aerogenes, ATCC29751, 20 h
Protocol: as §1

[4] = system: Pseudomonas aerugionsa ATCC 10145; experiment: as above; assay type: cell-based; conditions: ATCC10145, Muller-Hinton agar, 37° C., 20 hours
Protocol: as §1

[5] = system: Micrococcus luteus ATCC 9341; experiment: as above; assay type: cell-based; conditions: ATCC9341, Muller-Hinton agar, 37° C., 20 hours
Protocol: as §1

[6] = system: Bacillus megaterium ATCC 9885; experiment: as above; assay type: cell-based; conditions: Priestia megaterium, ATCC9885, 20 h
Protocol: as §1

[7] = system: Streptococcus faecalis ATCC 29212; experiment: as above; assay type: cell-based; conditions: Enterococcus faecalis, ATCC29212, Muller-Hinton agar, 37° C., 20 hours
Protocol: as §1

[8] = system: Shigella sonnei ATCC 11060; experiment: as above; assay type: cell-based; conditions: ATCC11060, Muller-Hinton agar, 37° C., 20 hours
Protocol: as §1

[9] = system: Salmonella typhimurium ATCC 14028; experiment: as above; assay type: cell-based; conditions: Salmonella enterica, Muller-Hinton agar, 37° C., 20 hours
Protocol: as §1

[10] = system: Citrobacter freundii ATCC 8090; experiment: as above; assay type: cell-based; conditions: ATCC8090, Muller-Hinton agar, 37° C., 20 hours
Protocol: as §1

[11] = system: Proteus vulgaris ATCC 6059; experiment: as above; assay type: cell-based; conditions: ATCC6059, Muller-Hinton agar, 37° C., 20 hours
Protocol: as §1

[12] = system: Pseudomonas aerugionsa ATCC 27853; experiment: as above; assay type: cell-based; conditions: ATCC27853, Muller-Hinton agar, 37° C., 20 hours
Protocol: as §1

[13] = system: Klebsiella pneumoniae ATCC 10031; experiment: as above; assay type: cell-based; conditions: ATCC10031, Muller-Hinton agar, 37° C., 20 hours
Protocol: as §1

[14] = system: Staphylococcus epidermidis ATCC 10537; experiment: as above; assay type: cell-based; conditions: ATCC10537, Muller-Hinton agar, 37° C., 20 hours
Protocol: as §1

[15] = system: Escherichia coli ATCC 25922; experiment: as above; assay type: cell-based; conditions: ATCC25922, Muller-Hinton agar, 37° C., 20 hours
Protocol: as §1

[16] = system: Providencia rettgeri ATCC 9250; experiment: as above; assay type: cell-based; conditions: ATCC9250, Muller-Hinton agar, 37° C., 20 hours
Protocol: as §1

[17] = system: Shigella flexneri ATCC 11836; experiment: as above; assay type: cell-based; conditions: ATCC11836, Muller-Hinton agar, 37° C., 20 hours
Protocol: as §1

[18] = system: Serratia marcescens ATCC 27117; experiment: as above; assay type: cell-based; conditions: ATCC27117, Muller-Hinton agar, 37° C., 20 hours
Protocol: as §1

[19] = system: Enterobacter cloacae ATCC 27508; experiment: as above; assay type: cell-based; conditions: ATCC27508, Muller-Hinton agar, 37° C., 20 hours
Protocol: as §1

ATCC 12228 = experiment: as above; assay type: cell-based; conditions: Staphylococcus faecalis, ATCC12228, 20 h
Protocol: as §1

[20] = system: Proteus mirabilis ATCC 25933; experiment: as above; assay type: cell-based; conditions: ATCC25933, Muller-Hinton agar, 37° C., 20 hours
Protocol: as §1

[21] = system: Bacillus cereus ATCC 11778; experiment: as above; assay type: cell-based; conditions: Bacillus cereus, ATCC11778, 20 h
Protocol: as §1

[22] = system: Escherichia coli ATCC 10536; experiment: as above; assay type: cell-based; conditions: ATCC10536, Muller-Hinton agar, 37° C., 20 hours
Protocol: as §1

[23] = system: Staphylococcus aureus ATCC 6638p; experiment: as above; assay type: cell-based; conditions: ATCC6638P, 20 h
Protocol: as §1

[24] = system: Morganella morganii ATCC 8076h; experiment: as above; assay type: cell-based; conditions: ATCC8076H, 20 h
Protocol: as §1

[25] = acute toxicity test, intravenous; conditions: mouse, in vivo, ICR mice, observed for 14 days
From the text: The results are shown in the last row of Table 2.

Structure (SMILES)	MIC [1] [µg/mL]	MIC [2] [µg/mL]	MIC [3] [µg/mL]	MIC [4] [µg/mL]	MIC [5] [µg/mL]	MIC [6] [µg/mL]	MIC [7] [µg/mL]	MIC [8] [µg/mL]	MIC [9] [µg/mL]	MIC [10] [µg/mL]	MIC [11] [µg/mL]	MIC [12] [µg/mL]	MIC [13] [µg/mL]	MIC [14] [µg/mL]	MIC [15] [µg/mL]	MIC [16] [µg/mL]	MIC [17] [µg/mL]	MIC [18] [µg/mL]	MIC [19] [µg/mL]	MIC (ATCC 12228) [µg/mL]	further results
CCC[n+]1c(N)cc(N)nc1SCC1=C(C(=O)[O-])N2C(=O)C(NC(=O)/C(=N\O[C@H](C)C(=O)O)c3csc(N)n3)[C@H]2SC1 (stereo partly drawn) [I-R-4, 7-[(Z)-2-(2-aminothiazol-4-yl)-2-[(R)-1-carboxyeth-1-oxyimino]acetamido]-3-[(4,6-diamino-1-propylpyrimidinium-2-yl)thiomethyl]-3-cephem-4-carboxylate]	1 (≈ 1.57 µM)	8 (≈ 12.5 µM)	1 (≈ 1.57 µM)	4 (≈ 6.27 µM)	0.5 (≈ 0.784 µM)	0.5 (≈ 0.784 µM)	> 128	0.063 (≈ 0.0988 µM)	0.25 (≈ 0.392 µM)	0.063 (≈ 0.0988 µM)	0.063 (≈ 0.0988 µM)	2 (≈ 3.14 µM)	0.063 (≈ 0.0988 µM)	2 (≈ 3.14 µM)	0.063 (≈ 0.0988 µM)	≤ 0.008	0.031 (≈ 0.0486 µM)	0.13 (≈ 0.204 µM)	0.016 (≈ 0.0251 µM)	1 (≈ 1.57 µM)	MIC [20]: 0.063 µg/mL (≈ 0.0988 µM); MIC [21]: 64 µg/mL (≈ 100 µM); MIC [22]: 0.063 µg/mL (≈ 0.0988 µM); MIC [23]: 2 µg/mL (≈ 3.14 µM); MIC [24]: ≤ 0.008 µg/mL; LD50 at 336 h [25]: > 3000 mg/kg
C[C@@H](O/N=C(\C(=O)NC1C(=O)N2C(C(=O)[O-])=C(CSc3nc(N)cc(N)[n+]3-c3ccccc3)CSC12)c1csc(N)n1)C(=O)O (stereo partly drawn) [I-R-5, 7-[(Z)-2-(2-aminothiazol-4-yl)-2-[(R)-1-carboxyeth-1-oxyimino]acetamido]-3-[(4,6-diamino-1'-phenylpyrimidinium-2-yl)thiomethyl]-3-cephem-4-carboxylate]	2 (≈ 2.98 µM)	16 (≈ 23.8 µM)	1 (≈ 1.49 µM)	8 (≈ 11.9 µM)	0.25 (≈ 0.372 µM)	0.5 (≈ 0.744 µM)	> 128	0.25 (≈ 0.372 µM)	0.5 (≈ 0.744 µM)	0.13 (≈ 0.194 µM)	0.063 (≈ 0.0938 µM)	4 (≈ 5.95 µM)	0.063 (≈ 0.0938 µM)	2 (≈ 2.98 µM)	0.25 (≈ 0.372 µM)	≤ 0.008	0.063 (≈ 0.0938 µM)	0.5 (≈ 0.744 µM)	0.031 (≈ 0.0461 µM)	2 (≈ 2.98 µM)	MIC [20]: 0.063 µg/mL (≈ 0.0938 µM); MIC [21]: 64 µg/mL (≈ 95.3 µM); MIC [22]: 0.13 µg/mL (≈ 0.194 µM); MIC [23]: 4 µg/mL (≈ 5.95 µM); MIC [24]: ≤ 0.008 µg/mL; LD50 at 336 h [25]: > 2000 mg/kg
Cc1c(N)nc(SCC2=C(C(=O)[O-])N3C(=O)C(NC(=O)/C(=N\O[C@H](C)C(=O)O)c4csc(N)n4)[C@H]3SC2)[n+](N)c1N (stereo partly drawn) [I-R-7, 7-[(Z)-2-(2-aminothiazol-4-yl)-2-[(R)-1-carboxyeth-1-oxyimino]acetamido]-3-[(5-methyl-1,4,6-triaminopyrimidinium-2-yl)thiomethyl]-3-cephem-4-carboxylate]	2 (≈ 3.2 µM)	4 (≈ 6.4 µM)	2 (≈ 3.2 µM)	2 (≈ 3.2 µM)	0.5 (≈ 0.8 µM)	0.5 (≈ 0.8 µM)	> 128	0.063 (≈ 0.101 µM)	0.25 (≈ 0.4 µM)	0.13 (≈ 0.208 µM)	0.063 (≈ 0.101 µM)	2 (≈ 3.2 µM)	0.063 (≈ 0.101 µM)	2 (≈ 3.2 µM)	0.063 (≈ 0.101 µM)	≤ 0.008	0.031 (≈ 0.0496 µM)	0.13 (≈ 0.208 µM)	0.063 (≈ 0.101 µM)	2 (≈ 3.2 µM)	MIC [20]: 0.031 µg/mL (≈ 0.0496 µM); MIC [21]: 128 µg/mL (≈ 205 µM); MIC [22]: 0.063 µg/mL (≈ 0.101 µM); MIC [23]: 4 µg/mL (≈ 6.4 µM); MIC [24]: ≤ 0.008 µg/mL; LD50 at 336 h [25]: > 5000 mg/kg
